Measured values: patent publication US20240041876A1, “PHARMACEUTICAL COMPOSITION FOR PREVENTION OR TREATMENT OF DEGENERATIVE BRAIN DISEASES COMPRISING ABEMACICLIB AS ACTIVE INGREDIENT” (priority 2020, published 2024)

Columns and labels:
[1] = tested on: 5×FAD mice; assay: Abemaciclib versus donepezil: cognitive function in 5×FAD mice (Y maze, NOR); assay type: in vivo, mouse; settings: abemaciclib 30 mg/kg or donepezil 1 mg/kg intraperitoneal daily for 14 days
Procedure: Then, percent alteration=(number of alterations/number of triads)×100 was obtained and used as a parameter of short-term memory. • Alteration: 1 point awarded when the mouse enters three different arms in turn • Triads: Total visits—2
The animal was allowed to start from the center of the box, and the time at which the animal was interested in the object was recorded for 5 minutes. After 24 hours, one of the two objects was replaced with fresh one, the times at which the mouse approached the old object and the fresh object were measured, and the preference for the new object was analyzed and used as a long-term memory analysis index.

[2] = tested on: 5×FAD mice; assay: Abemaciclib versus donepezil: astrocyte activity in 5×FAD mice (anti-GFAP, anti-6E10); assay type: in vivo, mouse; settings: abemaciclib 30 mg/kg or donepezil 1 mg/kg intraperitoneal daily for 14 days
[3] = tested on: 5×FAD mice; assay: Abemaciclib versus donepezil: tau kinases phospho-GSK-3β and DYRK1A in 5×FAD mice; assay type: in vivo, mouse; settings: abemaciclib 30 mg/kg or donepezil 1 mg/kg intraperitoneal daily for 14 days
Procedure: F1-generation male 5×FAD mice (stock #34848-JAX, B6Cg-Tg APPSwF1Lon, PSEN1*M146L*L286V6799Vas/Mmjax) purchased from Jackson Laboratory were used. 5×FAD mice (3 months old) were bred in a sterile facility under 12-hour light/dark controlled conditions at an ambient temperature of 22° C. After daily administration of abemaciclib (30 mg/kg, intraperitoneal administration) or vehicle (10% DMSO) to 5×FAD mice for 14 days, Y maze test on day 15 and NOR test on day 16 to 17 were performed, followed by fluorescent tissue staining or Golgi staining.
Then, each brain section was subjected to immunohistochemical staining. Brain sections were rinsed in PBS and permeabilized for 1 hour at room temperature using PBS containing 0.2% Triton X-100 and 1% BSA. Then, the primary antibody was diluted in PBST (0.2% Triton X-100 in PBS) and reacted at 4° C. for 24 hours, and the next day, the tissue was washed three times with PBST, and then reacted with a secondary antibody bound with a fluorescent signal at room temperature for 2 hours. Then, the brain sections were washed three times with PBS, placed on slides, and observed under a fluorescence microscope.

[4] = tested on: BV2 microglia; assay: MTT assay, cytotoxicity to BV2 microglia; assay type: cell-based; settings: 0.1, 1, 5, 10, 25, or 50 μM; 24 hours in the absence of FBS
Procedure: Cell viability was measured using the 3-(4,5-dimethylthiazol-2-yl)-2,5-diphenyltetrazolium bromide (MTT) assay. BV2 microglia were seeded in a 96-well plate and treated with various concentrations of abemaciclib mesylate (0.1, 1, 5, 10, 25, 50 μM) for 24 hours in the absence of FBS. Then, the cells were treated with 0.5 mg/ml MTT and incubated at 37° C. for 3 hours in a 5% CO2 incubator, and absorbance was measured at 580 nm.
To determine whether or not abemaciclib is cytotoxic to BV2 microglia, BV2 microglia were treated with abemaciclib at different concentrations (0.1, 1, 5, 10, 25, or 50 μM) and then MTT assay was performed.

COc1cc2c(cc1OC)C(=O)C(CC1CCN(Cc3ccccc3)CC1)C2 (stereo not shown) [donepezil]
short-term memory (Y maze) ([1]; day 15): improved
long-term memory (NOR test) ([1]; day 16-17): improved
number of astrocytes directly interacting with amyloid plaques [2]: reduced
expression of DYRK1A, a tau kinase, in the cortex [3]: reduced
expression of DYRK1A, a tau kinase, in the hippocampus [3]: reduced
hippocampal phospho-GSK-3β levels [3]: reduced

CCN1CCN(Cc2ccc(Nc3ncc(F)c(-c4cc(F)c5nc(C)n(C(C)C)c5c4)n3)nc2)CC1 [abemaciclib]
cytotoxicity to BV2 microglia (MTT assay) [4]: did not induce cytotoxicity
